Experimental data as given in PubChem BioAssay AID2060512 (Molecular Pharmacology Branch, DTP, NCI, 2025).
Values joined by “and” are separate entries in the source; they are usually repeats but may differ in a detail not shown here. Equal entries are not always repeated.

System: 186277-243-T-J2-PDC complex spheroid viability
Assay: Anticancer human tumor 186277-243-T-J2-PDC patient-derived colon adenocarcinoma cell line growth inhibition [GQUAD]
Conditions: for viability, T/C: stronger effect = lower value
Description: DNA G-quadruplex Stabilizer Agents in Combinations in Complex Spheroids
A high-throughput screen of multi-cell type tumor spheroids was designed to identify active combinations of DNA G-quadruplex stabilizer agents and targeted small molecules. Complex spheroids include a stromal component modeled by human endothelial cells (HUVEC) and fibroblasts modeled by human mesenchymal stem cells (MSCs). The concentration ranges selected for each drug and investigational agent were based upon clinically achievable concentrations if the clinical Cmax of the agent was known.
Compounds. The drugs and investigational agents: pidnarulex (CX-5461; NSC782164), APTO-253 (NSC789042), BRACO-19 (NSC847499), peposertib (NSC802822), ceralasertib (NSC780249), elimusertib (NSC800525), camonsertib (NSC841442), AZD-1390 (NSC803789), olaparib (NSC753686), talazoparib (NSC767125), ART-558 (NSC835418), sotorasib (NSC818433), MRTX-1133 (NSC836407), SN-38 (NSC673596), topotecan (NSC609699), etoposide (NSC141540), doxorubicin (NSC123127), gemcitabine (NSC613327), 5-fluorouracil (NSC19893), paclitaxel (NSC125973), vemurafenib (NSC761431), panobinostat (NSC761190), R-306465 (JNJ-16241199; NSC773264), adavosertib (NSC754352), TP-3654 (NSC805149), carboplatin (NSC241240), KSQ-4279 (NSC840948), and staurosporine (NSC755774) were obtained from the National Cancer Institute (NCI) Developmental Therapeutics Program Chemical Repository (34). The FDA-approved anticancer drug set is available from the NCI Developmental Therapeutics Program. […] The stock solutions were prepared in dimethyl sulfoxide (DMSO, Sigma-Aldrich, St. Louis, MO, cat. D2650) at 800-fold the tested concentration and stored at -70 degrees C prior to their use. All drugs and investigational agents were tested over a range starting from a high concentration at or near the clinical Cmax and decreasing in half-log increments. If the clinical Cmax for an agent had not been determined, the highest concentration tested was 10 microM.
2.3 Cell Culture. All cells were maintained in an incubator at 37 degrees C and 5% CO2 with 95% humidity. The PDC lines were cultured according to standard operating procedures established by the NCI PDMR. All PDCs were thawed and cultured in Matrigel-coated flasks prepared with a working solution of 1X Ham's F-12 nutrient mix, without supplementation (Invitrogen, cat. 11765054), 100 U/mL penicillin-streptomycin (Invitrogen, cat. 15140122), and 2.5% Matrigel (Corning Inc., cat. 354248) for the first three passages. The 857933-349-R-J2-PDC line was cultured in 6C/Colon 1B media, which includes advanced DMEM/F-12 (Thermo Fisher Scientific, cat. 12634028), 10 mM HEPES (Thermo Fisher Scientific, cat. 15630080), 1X GlutaMAX supplement (Thermo Fisher Scientific, cat. 35050061), 0.1 mg/mL primocin (InvivoGen, cat. ant-pm-2), 10% defined fetal bovine serum, heat inactivated (HyClone Laboratories Inc., cat. SH30070.03HI), 50% L-WRN conditioned media (ATCC, cat. CRL-3276), 1.25 mM N-Acetyl-L-cysteine (Sigma-Aldrich, cat. A9165), 10 mM nicotinamide (Sigma-Aldrich, cat. N0636), 1X B-27 supplement (Thermo Fisher Scientific, cat. 17504044), 1X N-2 supplement (Thermo Fisher Scientific, cat. 17502048), 10 microM Y-27632 dihydrochloride (Tocris Bioscience, cat. 1254), and 50 ng/mL human EGF recombinant protein (Thermo Fisher Scientific, cat. PHG0311). The 485176-168-R4-J1-PDC line was cultured in Panc media, which includes all 6C/Colon 1B media components plus 100 ng/mL human FGF-10 (Thermo Fisher Scientific, cat. 100-26), 500 nM SB-431542 (Selleckchem, cat. S1067), and gastrin (Tocris, cat. 3006).
[…]

[1] = curve of first compound, second compound 0.0316 µM
[2] = curve of first compound, second compound 0.1 µM
[3] = curve of first compound, second compound 0.316 µM
[4] = curve of first compound, second compound 1 µM
[5] = curve of first compound, second compound 3.16 µM
[6] = curve of first compound, second compound 10 µM
[7] = second compound 0.0316 µM, first compound 0.0316 µM
[8] = second compound 0.0316 µM, first compound 0.316 µM
[9] = second compound 0.1 µM, first compound 0.0316 µM
[10] = second compound 0.1 µM, first compound 0.316 µM
[11] = second compound 0.316 µM, first compound 0.0316 µM
[12] = second compound 0.316 µM, first compound 0.316 µM
[13] = second compound 1 µM, first compound 0.0316 µM
[14] = second compound 1 µM, first compound 0.316 µM
[15] = second compound 3.16 µM, first compound 0.0316 µM
[16] = second compound 3.16 µM, first compound 0.316 µM
[17] = second compound 10 µM, first compound 0.0316 µM
[18] = second compound 10 µM, first compound 0.316 µM
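Also: spheroids exposed to drugs for 7 days.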
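For viability, T/C in this document: 100% = DMSO vehicle control viability.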

Cn1ncnc1[C@H]1c2n[nH]c(=O)c3cc(F)cc(c23)N[C@@H]1c1ccc(F)cc1 + Cc1[nH]c2ccc(F)cc2c1-c1nc2c3cccnc3c3ncccc3c2[nH]1
IC50 [1]: > 0.316 µM
IC50 [2]: > 0.316 µM
IC50 [3]: > 0.316 µM
IC50 [4]: > 0.316 µM
IC50 [5]: > 0.316 µM
IC50 [6]: > 0.316 µM
viability, T/C (second compound 0.0316 µM, first compound 0.000999 µM): 112%
viability, T/C (second compound 0.0316 µM, first compound 0.00316 µM): 99.2%
viability, T/C (second compound 0.0316 µM, first compound 0.00999 µM): 94.8%
viability, T/C [7]: 94.2%
viability, T/C (second compound 0.0316 µM, first compound 0.0999 µM): 98.1%
viability, T/C [8]: 89.3%
viability, T/C (second compound 0.1 µM, first compound 0.000999 µM): 93.5%
viability, T/C (second compound 0.1 µM, first compound 0.00316 µM): 98.2%
viability, T/C (second compound 0.1 µM, first compound 0.00999 µM): 101%
viability, T/C [9]: 91.7%
viability, T/C (second compound 0.1 µM, first compound 0.0999 µM): 84.5%
viability, T/C [10]: 95.6%
viability, T/C (second compound 0.316 µM, first compound 0.000999 µM): 86.3%
viability, T/C (second compound 0.316 µM, first compound 0.00316 µM): 93.1%
viability, T/C (second compound 0.316 µM, first compound 0.00999 µM): 96.7%
viability, T/C [11]: 103%
viability, T/C (second compound 0.316 µM, first compound 0.0999 µM): 91.7%
viability, T/C [12]: 88.7%
viability, T/C (second compound 1 µM, first compound 0.000999 µM): 85.5%
viability, T/C (second compound 1 µM, first compound 0.00316 µM): 101%
viability, T/C (second compound 1 µM, first compound 0.00999 µM): 98.4%
viability, T/C [13]: 102%
viability, T/C (second compound 1 µM, first compound 0.0999 µM): 102%
viability, T/C [14]: 89.6%
viability, T/C (second compound 3.16 µM, first compound 0.000999 µM): 103%
viability, T/C (second compound 3.16 µM, first compound 0.00316 µM): 97.7%
viability, T/C (second compound 3.16 µM, first compound 0.00999 µM): 113%
viability, T/C [15]: 104%
viability, T/C (second compound 3.16 µM, first compound 0.0999 µM): 87.5%
viability, T/C [16]: 95%
viability, T/C (second compound 10 µM, first compound 0.000999 µM): 105%
viability, T/C (second compound 10 µM, first compound 0.00316 µM): 103%
viability, T/C (second compound 10 µM, first compound 0.00999 µM): 101%
viability, T/C [17]: 107%
viability, T/C (second compound 10 µM, first compound 0.0999 µM): 82.1%
viability, T/C [18]: 86.4%

CC(=O)O[C@H]1C(=O)[C@@]2(C)[C@H]([C@H](OC(=O)c3ccccc3)[C@]3(O)C[C@H](OC(=O)[C@H](O)[C@@H](NC(=O)c4ccccc4)c4ccccc4)C(C)=C1C3(C)C)[C@]1(OC(C)=O)CO[C@@H]1C[C@@H]2O + Cc1cnc(CNC(=O)c2c(=O)c3ccc(N4CCCN(C)CC4)nc3n3c2sc2ccccc23)cn1
IC50 [1]: < 0.0316 µM
IC50 [2]: < 0.0316 µM
IC50 [3]: < 0.0316 µM
IC50 [4]: < 0.0316 µM
IC50 [5]: < 0.0316 µM
IC50 [6]: < 0.0316 µM
viability, T/C [7]: 25.6%
viability, T/C (second compound 0.0316 µM, first compound 0.1 µM): 11.8%
viability, T/C [8]: 7.83%
viability, T/C (second compound 0.0316 µM, first compound 1 µM): 7.31%
viability, T/C (second compound 0.0316 µM, first compound 3.16 µM): 7.28%
viability, T/C (second compound 0.0316 µM, first compound 10 µM): 7.34%
viability, T/C [9]: 26.4%
viability, T/C (second compound 0.1 µM, first compound 0.1 µM): 18.3%
viability, T/C [10]: 11.9%
viability, T/C (second compound 0.1 µM, first compound 1 µM): 11.9%
viability, T/C (second compound 0.1 µM, first compound 3.16 µM): 11%
viability, T/C (second compound 0.1 µM, first compound 10 µM): 10.4%
viability, T/C [11]: 32.6%
viability, T/C (second compound 0.316 µM, first compound 0.1 µM): 18.1%
viability, T/C [12]: 18.1%
viability, T/C (second compound 0.316 µM, first compound 1 µM): 20.5%
viability, T/C (second compound 0.316 µM, first compound 3.16 µM): 17%
viability, T/C (second compound 0.316 µM, first compound 10 µM): 16.6%
viability, T/C [13]: 29.4%
viability, T/C (second compound 1 µM, first compound 0.1 µM): 29.9%
viability, T/C [14]: 23.1%
viability, T/C (second compound 1 µM, first compound 1 µM): 25.1%
viability, T/C (second compound 1 µM, first compound 3.16 µM): 23.8%
viability, T/C (second compound 1 µM, first compound 10 µM): 21.5%
viability, T/C [15]: 24.4%
viability, T/C (second compound 3.16 µM, first compound 0.1 µM): 27%
viability, T/C [16]: 24%
viability, T/C (second compound 3.16 µM, first compound 1 µM): 23.5%
viability, T/C (second compound 3.16 µM, first compound 3.16 µM): 25.5%
viability, T/C (second compound 3.16 µM, first compound 10 µM): 22.3%
viability, T/C [17]: 29.8%
viability, T/C (second compound 10 µM, first compound 0.1 µM): 25.5%
viability, T/C [18]: 26.1%
viability, T/C (second compound 10 µM, first compound 1 µM): 25.2%
viability, T/C (second compound 10 µM, first compound 3.16 µM): 24.8%
viability, T/C (second compound 10 µM, first compound 10 µM): 23.7%

C=CC(=O)N1CCN(c2nc(=O)n(-c3c(C)ccnc3C(C)C)c3nc(-c4c(O)cccc4F)c(F)cc23)C(C)C1 (stereo unspecified)
viability, T/C (compound 0.0316 µM): 91.3% and 93.7% and 101%
viability, T/C (compound 0.1 µM): 82.3% and 102% and 89.8%
viability, T/C (compound 0.316 µM): 94% and 91.1% and 104%
viability, T/C (compound 1 µM): 108% and 96.1% and 91.2%
viability, T/C (compound 3.16 µM): 92.6% and 117% and 98%
viability, T/C (compound 10 µM): 87.6% and 78.8% and 95.7%
IC50 (curve of compound): > 10 µM
